In brackets after ≈: the same amount, converted by molar mass. Entries after “also recorded” stand apart in the source; their conditions may differ.

A short description of data set [1]: Solubility test in water and FaSSIF. It is filed as physicochemical. Particulars: 37° C., up to 24 hours.
Data set [2] can be described thus: Metabolic stability in human liver microsomes. It is filed as in vitro ADME. Particulars: for Metabolic half-life of human liver microsomes: 5 μM compound, 1 mg/mL microsomes, 37° C. As to the method: Preparation of the test sample: Compound 1 (prepared in Example 5), 2 (prepared in Example 4), and 5 (cycloastragenol, purchased from Chengdu Jintaihe Company) were dissolved with an appropriate amount of DMSO to obtain a concentration of 10 mM solution.
1) The compound was diluted with DMSO to 0.5 mM, and diluted to 1/20 with PBS before the experiment.
2) Human liver microsomes and potassium phosphate buffer were added to the EP tube respectively and mixed by gentle shaking.
3) Pre-incubate the EP tube in a metal bath at 37° C. for 5 minutes. 4) Compound 1, 2 or 5 were added and incubated at 37° C.
5) Take 100 μl of sample from the tube at 0, 60, 120, 240, and 360 minutes respectively, and add the sample to the stop tube (containing 100 μl of cooled acetonitrile solution). The mixture was shaken vigorously to terminate the reaction and then placed it in a −30° C. refrigerator until analysis.
6) Centrifuge at 14300 r/min and 4° C. for 10 minutes, aspirate the supernatant and place it in a −30° C. refrigerator until analysis.
Column: Shim-pack XR-ODS II, 2.0×75 mm; mobile phase: mobile phase B: aqueous solution containing 0.2% formic acid; mobile phase A: acetonitrile solution; mobile phase ratio: […]
On the technique in general: Liver microsomes are a subcellular fraction often used to study metabolism.

Data set [3] can be described thus: Metabolic stability in rat liver microsomes. It is filed as in vitro ADME. Particulars: compared with compound 5 (cycloastragenol).

In the case of `CC(C)(O)[C@@H]1CC[C@](C)([C@H]2[C@@H](O)C[C@@]3(C)[C@@H]4C[C@H](O)[C@H]5C(C)(C)[C@@H](O)CC[C@@]56C[C@@]46CC[C@]23C)O1` [Compound 5, (2aR,3R,4S,5aS,5bS,7S,7aR,9S,11aR,12aS)-3-((2S,5S)-5-(2-hydroxypropan-2-yl)-2-methyltetrahydrofuran-2-yl)-2a,5a,8,8-tetramethyltetradecahydro-1H,12H-cyclopenta[a]cyclopropa[e]phenanthrene-4,7,9-triol, reference compound], the Solubility in data set [1] (FaSSIF (pH 6.5)) was 49 µg/mL (≈ 99.9 µM); in data set [1] (Water), 8 µg/mL (≈ 16.3 µM). Further, in data set [2], the “Metabolic half-life of human liver microsomes” value was determined as 0.308 h.
Take “(2aR,3R,4S,5aS,5bS,7S,7aR,9R,11aR,12aS)-9-halogen-3-((2R,5S)-5-(2-hydroxypropan-2-yl)-2-methyltetrahydrofuran-2-yl)-2a,5a,8,8-tetramethyltetradecahydro-1H,12H-cyclopenta[a]cyclopropa[e]phenanthrene-4,7-diol [Compound 1]”: in data set [2], the “Metabolic half-life of human liver microsomes” value was 3.893 h. Also, the “metabolic stability in human liver microsomes” value in data set [2] (compared with compound 5 (cycloastragenol)) is “relatively stable; also recorded: more stable than cycloastragenol”. Besides, the “metabolic stability in rat liver microsomes” value in data set [3] was “relatively stable; also recorded: more stable than cycloastragenol”.

As usually defined, the Solubility is the dissolved amount per volume that the medium holds. Read a low Solubility as a poorly soluble substance.

The values above are taken from US20220177511A1, “SERIES OF HALOGENATED TETRACYCLIC TRITERPENE DERIVATIVES AND THEIR PREPARATION AND APPLICATION” (SHANGHAI KING-X BIOTECH CO., LTD, priority 2019, published 2022).
